From PMC8654043 (Chemical Science, 2021)

Columns and labels:
[1] = target: caspase-8 (Homo sapiens, UniProt Q14790); format: biochemical
[2] = target: T1, caspase-9 (Homo sapiens, UniProt P55211); format: biochemical
T1 sequence (P55211 1-416): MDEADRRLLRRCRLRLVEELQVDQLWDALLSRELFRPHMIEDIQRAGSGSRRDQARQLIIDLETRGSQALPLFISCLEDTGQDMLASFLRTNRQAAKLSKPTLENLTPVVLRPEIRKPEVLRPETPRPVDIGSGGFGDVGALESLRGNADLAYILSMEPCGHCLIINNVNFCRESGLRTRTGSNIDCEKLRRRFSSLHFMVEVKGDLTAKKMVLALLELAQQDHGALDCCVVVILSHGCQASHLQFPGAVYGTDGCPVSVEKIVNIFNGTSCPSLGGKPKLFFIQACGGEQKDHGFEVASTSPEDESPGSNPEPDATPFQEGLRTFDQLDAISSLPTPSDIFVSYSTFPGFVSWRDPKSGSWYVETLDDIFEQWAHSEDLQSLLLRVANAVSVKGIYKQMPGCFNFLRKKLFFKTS

Sequence of caspase-8 (Q14790 217-374): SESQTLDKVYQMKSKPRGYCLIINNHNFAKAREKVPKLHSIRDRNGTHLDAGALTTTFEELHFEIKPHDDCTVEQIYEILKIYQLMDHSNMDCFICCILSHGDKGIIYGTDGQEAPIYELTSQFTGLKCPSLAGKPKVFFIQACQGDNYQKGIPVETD
Sequence of caspase-8 (Q14790 385-479): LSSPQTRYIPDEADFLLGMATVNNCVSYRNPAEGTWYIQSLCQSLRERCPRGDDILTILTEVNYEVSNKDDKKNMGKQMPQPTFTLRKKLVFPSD

With `CC(C)[C@H](NC(=O)c1ccc2ccccc2n1)C(=O)N[C@@H](CC(=O)O)C(=O)COc1c(F)cccc1F` [Q-VD-OPh] as the compound, how does the IC50 [1] read?
Its IC50 is 280 nM.

And the IC50 [2]?
Its IC50 is 310 nM.
